Values of other authors in US20240374543A1, “PHARMACEUTICAL COMPOSITIONS” (priority 2021, published 2024).

Settings: determined by the FDA

N-Nitrosodimethylamine [NDMA]
acceptable daily intake limit of NDMA: 96 nanogram per day
